Data from ChEMBL document CHEMBL1201862, “PubChem BioAssay data set” (2004).
Activity calls are given as the source filed them.

How the values were obtained:
[1] = target: T1, Carboxy-terminal domain RNA polymerase II polypeptide A small phosphatase 1 (Homo sapiens, UniProt Q9GZU7); experiment: CTDSP1 inhibitors, concentration-response, biochemical, absorbance readout, ultra-high-throughput screen actives (AID 540297); assay type: functional
T1 sequence (Q9GZU7 whole entry): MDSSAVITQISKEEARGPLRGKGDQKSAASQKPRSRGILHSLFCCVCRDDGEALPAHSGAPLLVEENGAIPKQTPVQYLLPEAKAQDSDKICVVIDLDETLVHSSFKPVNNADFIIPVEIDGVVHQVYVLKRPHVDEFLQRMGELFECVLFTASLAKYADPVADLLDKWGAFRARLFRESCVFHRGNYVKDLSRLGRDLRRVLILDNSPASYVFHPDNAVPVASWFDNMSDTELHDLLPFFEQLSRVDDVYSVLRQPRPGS

[2] = target: Eukaryotic translation initiation factor 4E (Mus musculus, UniProt P63073); experiment: blockers of eIF4G binding by eIF4E – biochemical, TR-FRET, dose response (AID 855); assay type: functional;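 note: potency for disrupting eIF4E binding to eIF4GI seen as loss of FRET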
[3] = target: Large T antigen (Simian virus 40, UniProt P03070); assay type: functional, Betapolyomavirus macacae;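 note: Confirmatory-stage PubChem screen for compounds that inhibit SV40 T antigen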
[4] = target: DNA dC->dU-editing enzyme APOBEC-3G (Homo sapiens, UniProt Q9HC16); experiment: Dose Response confirmation of small molecule APOBEC3G DNA Deaminase Inhibitors via a fluorescence-based single-stranded DNA deaminase assay. [Related pubchem assays (depositor defined):AID493012, AID493028]; assay type: functional
[5] = target: T2, Aminopeptidase N (Plasmodium falciparum FcB1/Columbia, UniProt O96935); experiment: malaria alanyl aminopeptidase activity blockers – biochemical, fluorogenic H-Leu-NHMec substrate, 1536-well (AID 1445); parameters: species or system Plasmodium falciparum 3D7, 3D7
T2 sequence (O96935 whole entry): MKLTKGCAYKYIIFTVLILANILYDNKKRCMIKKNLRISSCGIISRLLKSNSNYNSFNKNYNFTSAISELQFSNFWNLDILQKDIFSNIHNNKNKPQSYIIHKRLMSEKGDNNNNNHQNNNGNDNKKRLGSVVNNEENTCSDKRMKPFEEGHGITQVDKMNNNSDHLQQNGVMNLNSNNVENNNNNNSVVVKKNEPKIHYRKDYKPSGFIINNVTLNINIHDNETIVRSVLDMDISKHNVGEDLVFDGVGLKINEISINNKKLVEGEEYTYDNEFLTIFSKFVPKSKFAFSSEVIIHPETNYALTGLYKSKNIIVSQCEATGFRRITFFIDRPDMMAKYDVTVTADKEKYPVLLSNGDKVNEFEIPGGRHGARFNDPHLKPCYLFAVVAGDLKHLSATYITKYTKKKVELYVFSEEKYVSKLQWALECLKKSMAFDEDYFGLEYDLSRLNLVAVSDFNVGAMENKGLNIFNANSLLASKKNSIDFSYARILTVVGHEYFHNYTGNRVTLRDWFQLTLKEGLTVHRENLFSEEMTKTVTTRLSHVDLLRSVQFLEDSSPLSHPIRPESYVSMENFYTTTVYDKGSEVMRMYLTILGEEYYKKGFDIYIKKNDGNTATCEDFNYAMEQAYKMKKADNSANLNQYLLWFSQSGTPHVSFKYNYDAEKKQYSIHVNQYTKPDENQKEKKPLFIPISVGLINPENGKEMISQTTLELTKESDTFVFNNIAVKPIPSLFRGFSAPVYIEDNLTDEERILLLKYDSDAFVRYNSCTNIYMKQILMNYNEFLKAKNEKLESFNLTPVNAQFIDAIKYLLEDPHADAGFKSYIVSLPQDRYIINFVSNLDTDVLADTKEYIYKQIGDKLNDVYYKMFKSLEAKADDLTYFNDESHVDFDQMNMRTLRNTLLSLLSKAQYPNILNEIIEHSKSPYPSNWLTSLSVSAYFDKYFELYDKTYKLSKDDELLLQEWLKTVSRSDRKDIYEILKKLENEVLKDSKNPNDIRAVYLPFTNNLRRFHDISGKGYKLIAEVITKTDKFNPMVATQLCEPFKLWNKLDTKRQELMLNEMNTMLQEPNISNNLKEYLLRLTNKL

[6] = HIV-1 AD8 envelope cell-cell fusion blockers – cherry-pick, dose response (AID 652062); assay type: functional, cell-based;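 note: luciferase signal from cell-cell fusion driven by HIV-1 clade B AD8 Env; potency is for inhibitors of fusion seen as a drop in luminescence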
[7] = blockers of HIV-1 envelope-mediated cell-cell fusion – cherry-pick, dose response (AID 652057); assay type: functional, cell-based
[8] = viability of uninfected HEp-2 cells – cell-based, HTS, cytotoxicity control for RSV inhibitor project, dose response (AID 2410); assay type: functional; conditions: human respiratory syncytial virus
[9] = target: T3, Sentrin-specific protease 8 (Homo sapiens, UniProt Q96LD8); assay type: functional;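 note: luminescence read-out of SENP8 inhibition, dose-response confirmation following an ultra-high-throughput screen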
T3 sequence (Q96LD8 whole entry): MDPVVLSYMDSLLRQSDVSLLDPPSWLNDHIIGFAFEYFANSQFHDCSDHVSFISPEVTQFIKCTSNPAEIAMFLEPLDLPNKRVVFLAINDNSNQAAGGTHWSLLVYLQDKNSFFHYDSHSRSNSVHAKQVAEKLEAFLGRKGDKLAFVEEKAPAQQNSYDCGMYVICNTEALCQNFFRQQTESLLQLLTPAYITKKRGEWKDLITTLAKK

[10] = target: T4, Sentrin-specific protease 6 (Homo sapiens, UniProt Q9GZR1); assay type: functional;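 note: Luminescence-based dose-response confirmatory assay of SENP6 inhibition, following up an ultra-high-throughput screen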
T4 sequence (Q9GZR1 whole entry): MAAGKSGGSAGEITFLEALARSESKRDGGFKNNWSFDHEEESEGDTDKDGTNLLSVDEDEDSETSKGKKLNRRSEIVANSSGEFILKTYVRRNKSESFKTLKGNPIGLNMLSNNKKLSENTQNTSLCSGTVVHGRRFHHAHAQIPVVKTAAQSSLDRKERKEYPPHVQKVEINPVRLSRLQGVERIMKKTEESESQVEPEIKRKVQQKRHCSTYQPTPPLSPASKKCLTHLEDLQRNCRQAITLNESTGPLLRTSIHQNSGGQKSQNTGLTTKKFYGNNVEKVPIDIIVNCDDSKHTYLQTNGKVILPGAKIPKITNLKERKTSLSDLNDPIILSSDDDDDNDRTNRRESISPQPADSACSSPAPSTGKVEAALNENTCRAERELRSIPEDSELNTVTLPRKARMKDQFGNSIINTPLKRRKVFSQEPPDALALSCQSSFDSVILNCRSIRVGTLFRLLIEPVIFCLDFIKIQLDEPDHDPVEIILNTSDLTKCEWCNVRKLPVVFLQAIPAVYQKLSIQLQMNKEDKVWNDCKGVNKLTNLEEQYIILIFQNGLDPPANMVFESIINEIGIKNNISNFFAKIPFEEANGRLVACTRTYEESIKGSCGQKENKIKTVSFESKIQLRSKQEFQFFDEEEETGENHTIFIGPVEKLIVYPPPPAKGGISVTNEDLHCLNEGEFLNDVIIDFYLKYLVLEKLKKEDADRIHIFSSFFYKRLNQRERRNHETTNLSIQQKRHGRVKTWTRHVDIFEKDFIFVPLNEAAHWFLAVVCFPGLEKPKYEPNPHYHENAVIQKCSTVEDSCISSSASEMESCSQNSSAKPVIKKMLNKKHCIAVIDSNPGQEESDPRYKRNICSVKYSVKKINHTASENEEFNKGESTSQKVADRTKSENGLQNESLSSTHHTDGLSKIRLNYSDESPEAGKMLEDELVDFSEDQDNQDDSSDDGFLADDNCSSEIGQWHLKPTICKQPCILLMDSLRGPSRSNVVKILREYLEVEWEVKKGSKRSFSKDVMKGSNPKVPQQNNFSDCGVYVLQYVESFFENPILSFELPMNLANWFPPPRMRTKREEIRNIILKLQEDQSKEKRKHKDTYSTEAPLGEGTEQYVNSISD

[11] = target: T5, Sentrin-specific protease 7 (Homo sapiens, UniProt Q9BQF6); assay type: functional;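 note: Luminescence-based dose-response confirmation of ultra-high-throughput screening hits, measuring inhibition of SENP7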
T5 sequence (Q9BQF6 whole entry): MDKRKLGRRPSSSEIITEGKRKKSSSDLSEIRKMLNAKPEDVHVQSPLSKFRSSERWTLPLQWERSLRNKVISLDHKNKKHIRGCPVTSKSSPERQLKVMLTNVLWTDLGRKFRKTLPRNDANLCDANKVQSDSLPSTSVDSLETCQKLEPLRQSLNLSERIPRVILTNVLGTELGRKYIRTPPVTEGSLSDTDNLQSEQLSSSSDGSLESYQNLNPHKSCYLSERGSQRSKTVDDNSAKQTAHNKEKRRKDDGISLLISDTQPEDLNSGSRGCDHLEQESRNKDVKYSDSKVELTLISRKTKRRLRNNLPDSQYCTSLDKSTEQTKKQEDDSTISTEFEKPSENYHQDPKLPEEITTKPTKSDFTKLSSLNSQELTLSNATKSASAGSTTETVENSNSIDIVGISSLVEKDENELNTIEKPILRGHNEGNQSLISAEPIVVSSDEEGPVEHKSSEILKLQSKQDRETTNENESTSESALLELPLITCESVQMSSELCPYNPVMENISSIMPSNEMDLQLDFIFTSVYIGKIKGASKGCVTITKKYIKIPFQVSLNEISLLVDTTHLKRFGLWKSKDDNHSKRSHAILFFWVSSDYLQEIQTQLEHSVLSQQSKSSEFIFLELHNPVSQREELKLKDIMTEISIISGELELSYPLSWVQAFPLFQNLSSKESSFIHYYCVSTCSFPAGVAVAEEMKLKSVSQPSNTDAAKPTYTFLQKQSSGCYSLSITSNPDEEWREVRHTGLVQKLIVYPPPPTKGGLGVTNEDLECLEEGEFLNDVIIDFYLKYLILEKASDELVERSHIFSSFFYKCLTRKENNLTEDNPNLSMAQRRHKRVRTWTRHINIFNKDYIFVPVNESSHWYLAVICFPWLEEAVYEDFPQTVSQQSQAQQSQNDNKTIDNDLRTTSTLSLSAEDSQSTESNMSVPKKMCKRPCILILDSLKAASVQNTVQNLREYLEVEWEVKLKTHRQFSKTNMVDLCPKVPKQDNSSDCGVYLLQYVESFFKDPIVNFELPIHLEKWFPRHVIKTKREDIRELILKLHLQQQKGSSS

[12] = cells; assay type: functional
[13] = HEK-293T viability loss after treatment – luminescence, T-cell screen hits, cytotoxicity control for TCR NF-kB inhibitor project, dose response (AID 489026); assay type: functional, cell-based;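 note: cells exposed to compound about 14 hours before the viability readout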
[14] = target: Nonstructural protein 1 (Influenza A virus, UniProt Q194T2); assay type: functional, Influenza A virus (A/California/07/2009(H1N1))
Chain of Nonstructural protein 1 (Q194T2 whole entry): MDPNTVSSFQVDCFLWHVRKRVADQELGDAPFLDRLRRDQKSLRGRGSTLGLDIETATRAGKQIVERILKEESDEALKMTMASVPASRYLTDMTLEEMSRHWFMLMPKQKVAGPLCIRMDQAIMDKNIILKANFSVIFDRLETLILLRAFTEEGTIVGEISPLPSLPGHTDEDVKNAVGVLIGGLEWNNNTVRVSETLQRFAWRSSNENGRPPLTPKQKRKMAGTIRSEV

Chain of Eukaryotic translation initiation factor 4E (P63073 whole entry): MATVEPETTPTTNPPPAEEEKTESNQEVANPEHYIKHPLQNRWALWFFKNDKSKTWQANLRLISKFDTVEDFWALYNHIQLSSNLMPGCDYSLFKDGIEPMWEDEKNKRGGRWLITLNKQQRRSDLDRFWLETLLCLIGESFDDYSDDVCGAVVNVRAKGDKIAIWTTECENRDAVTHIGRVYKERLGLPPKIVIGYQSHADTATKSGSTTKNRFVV
Chain of Large T antigen (P03070 whole entry): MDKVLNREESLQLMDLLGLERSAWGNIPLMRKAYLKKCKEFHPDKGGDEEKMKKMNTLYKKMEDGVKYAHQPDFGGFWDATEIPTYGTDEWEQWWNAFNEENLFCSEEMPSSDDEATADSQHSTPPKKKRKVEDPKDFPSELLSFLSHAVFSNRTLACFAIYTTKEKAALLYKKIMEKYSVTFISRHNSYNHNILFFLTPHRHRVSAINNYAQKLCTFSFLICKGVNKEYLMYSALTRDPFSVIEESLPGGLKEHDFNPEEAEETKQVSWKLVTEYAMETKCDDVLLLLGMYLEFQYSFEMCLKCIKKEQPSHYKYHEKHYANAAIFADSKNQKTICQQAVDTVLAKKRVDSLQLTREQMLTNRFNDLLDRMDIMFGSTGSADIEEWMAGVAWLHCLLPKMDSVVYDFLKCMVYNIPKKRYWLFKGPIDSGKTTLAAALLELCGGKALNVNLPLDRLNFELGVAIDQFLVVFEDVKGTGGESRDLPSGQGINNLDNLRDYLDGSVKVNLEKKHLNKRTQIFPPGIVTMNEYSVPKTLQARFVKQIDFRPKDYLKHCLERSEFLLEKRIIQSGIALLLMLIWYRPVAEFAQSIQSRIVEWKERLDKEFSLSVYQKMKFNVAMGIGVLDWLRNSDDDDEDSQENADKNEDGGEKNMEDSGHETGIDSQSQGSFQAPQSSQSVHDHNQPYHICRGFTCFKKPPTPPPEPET
Chain of DNA dC->dU-editing enzyme APOBEC-3G (Q9HC16 whole entry): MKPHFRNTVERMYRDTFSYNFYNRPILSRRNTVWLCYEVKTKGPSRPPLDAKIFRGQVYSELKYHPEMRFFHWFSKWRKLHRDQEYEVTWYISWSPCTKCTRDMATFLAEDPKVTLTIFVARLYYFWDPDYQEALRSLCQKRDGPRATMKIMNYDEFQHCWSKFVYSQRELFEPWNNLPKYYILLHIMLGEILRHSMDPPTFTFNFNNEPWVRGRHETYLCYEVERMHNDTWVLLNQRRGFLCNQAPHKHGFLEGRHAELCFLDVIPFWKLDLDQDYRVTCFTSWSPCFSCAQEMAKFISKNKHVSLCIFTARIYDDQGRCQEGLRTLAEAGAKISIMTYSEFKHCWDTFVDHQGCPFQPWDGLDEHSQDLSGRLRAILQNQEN

Structure (SMILES): N#C/C(=C\c1ccc(OC(=O)c2ccc(Br)s2)cc1)c1nc2ccccc2[nH]1
- IC50 [1]: 1.78 µM (active)
- IC50 [2]: > 64 µM (inactive)

Structure (SMILES): CCOc1cc(NS(=O)(=O)c2ccc(NC(C)=O)cc2)c(OCC)cc1NC(=O)c1cccs1
- IC50 [3]: 24 µM (active)

Structure (SMILES): O=C1CCC(C(=O)Nc2cccc(S(=O)(=O)Nc3ccccc3F)c2)=NN1
- IC50 [4]: 24.6 µM (active)

Structure (SMILES): COc1cc(NS(=O)(=O)c2ccc(NC(=S)NC(=O)c3cccs3)cc2)nc(OC)n1
- IC50 [5]: 38.9 µM (active)

Structure (SMILES): Cc1ccc(S(=O)(=O)N(C)C[C@@H]2Oc3ccc(NC(=O)Cn4cnnn4)cc3CC(=O)N([C@H](C)CO)C[C@@H]2C)cc1
- AC50 [6]: 7.7 µM (active)
- AC50 [7]: 2.96 µM (active)

Structure (SMILES): O=c1cc(CN2CCN(c3ccc(O)cc3)CC2)nc2scc(-c3ccccc3)n12
- IC50 [3]: 10.5 µM (active)

Structure (SMILES): CN(C(=O)c1ccccc1OCc1ccc(Cl)cc1)c1ccccc1
- CC50 [8]: 25.7 µM (active)

Structure (SMILES): Cc1[nH]n(C(N)=S)c(=O)c1/N=N/c1ccccc1C(F)(F)F
- IC50 [9]: 15.5 µM (active)
- IC50 [10]: 18.9 µM (active)
- IC50 [11]: 12.7 µM (active)

Structure (SMILES): C[C@H]1CN([C@@H](C)CO)C(=O)c2ccccc2-c2ccccc2CO[C@H]1CN(C)S(=O)(=O)c1cccc(C#N)c1
- AC50 [6]: 0.743 µM (active)
- AC50 [7]: < 0.26 µM (active)

Structure (SMILES): CC1CCN(c2c(NCC3CCC(C(=O)NCCc4ccc(Cl)cc4)CC3)c(=O)c2=O)CC1 (centres undefined)
- CC50 [8]: > 50 µM (active)

Structure (SMILES): Cc1ccc2nc(NS(C)(=O)=O)sc2c1
- CC50 [8]: 23 µM (active)

Structure (SMILES): COc1ccc(C(=O)CN2C(=O)NC(C)(c3ccc(C)cc3)C2=O)cc1OC (centres undefined)
- IC50 [2]: > 64 µM (inactive)

Structure (SMILES): Cc1cccc(NC(=O)c2ccc(OC3CSC3)cc2)c1
- IC50 [12]: 44 µM (active)

Structure (SMILES): CN1/C(=C\C(=O)c2cccnc2)Sc2ccccc21
- CC50 [8]: 26.5 µM (active)

Structure (SMILES): CCCCc1nc(NCCNC(=O)c2ccco2)c(C#N)c2c1CSC(C)(C)C2
- IC50 [5]: 85.3 µM (active)

Structure (SMILES): Cc1ccc(S(=O)(=O)NNC2=NS(=O)(=O)c3ccccc32)c(C)c1
- IC50 [5]: 9.97 µM (active)

Structure (SMILES): COc1ccccc1-c1noc(-c2ccccc2)n1
- IC50 [2]: > 64 µM (inactive)

Structure (SMILES): CCN(CC)S(=O)(=O)c1ccc(OC)c(NC(=O)Cc2cccs2)c1
- IC50 [1]: 4.5 µM (active)
- IC50 [2]: 50 µM (inactive)

Structure (SMILES): CCN(CC)c1ccc(S(=O)(=O)N(CC)CC)cc1NC(=O)c1cccnc1
- IC50 [5]: 28.5 µM (active)

Structure (SMILES): CCOC(=O)C(C)Oc1cccc2c(=O)n(CC(=O)NCc3ccco3)ccc12 (centres undefined)
- IC50 [13]: > 80 µM (inactive)

Structure (SMILES): Cc1ccc2cc(CCNS(=O)(=O)c3ccc(Br)cc3)c(O)nc2c1C
- CC50 [8]: 22.1 µM (active)

Structure (SMILES): O=[N+]([O-])c1cc(/C=N/N=C(/Nc2ccccn2)c2ccccn2)ccc1O
- IC50 [14]: 2.46 µM (active)

Structure (SMILES): COc1ccc(OC2C(=O)N(Cc3ccc4c(c3)OCO4)C2c2cccs2)cc1 (centres undefined)
- AC50 [6]: 1.71 µM (active)
- AC50 [7]: 53.1 µM (active)

Structure (SMILES): C[C@H](NC(=O)c1ccccc1)C(=O)Nc1nc(-c2ccccn2)cs1
- IC50 [14]: 16.3 µM (active)

Structure (SMILES): CCn1c(CNC(=O)c2cccs2)nnc1SCC(=O)NCCc1ccccc1
- IC50 [5]: 90 µM (active)

Structure (SMILES): O=[N+]([O-])c1ccc(Sc2ccc(Cl)c(Cl)c2)nc1
- IC50 [13]: > 80 µM (inactive)

Structure (SMILES): CN1CCN(C(=S)SCC(=O)Nc2ccc(Cl)cc2C(=O)c2ccccc2)CC1
- IC50 [14]: > 100 µM (active)
